Converted amounts (≈) assume the structure as drawn.
Key:
[1] = test system: vancomycin-resistant enterococci; assay: broth micro-dilution, mean geometric MIC; assay type: cell-based, Enterococcus faecium and Enterococcus faecalis; details: enterococci, 24-hour incubation
[2] = test system: Staphylococcus aureus X778; assay: broth micro-dilution MIC; assay type: cell-based
Protocol: (§1) The MIC's were determined using a standard broth micro-dilution assay.

[3] = test system: Staphylococcus aureus 491; assay: broth micro-dilution MIC; assay type: cell-based
Protocol: as §1

[4] = test system: Entercoccus faecium 180-1; assay: broth micro-dilution MIC; assay type: cell-based
Protocol: as §1

[5] = test system: Entercoccus faecium 276; assay: broth micro-dilution MIC; assay type: cell-based
Protocol: as §1

[6] = test system: Staphylococcus aureus SA1199; assay: broth micro-dilution MIC; assay type: cell-based
Protocol: as §1

[7] = test system: Streptococcus pyogenes C203; assay: broth micro-dilution MIC; assay type: cell-based
Protocol: as §1

[8] = test system: Staphylococcus aureus X400; assay: broth micro-dilution MIC; assay type: cell-based
Protocol: as §1

[9] = test system: Staphylococcus aureus 446; assay: broth micro-dilution MIC; assay type: cell-based
Protocol: as §1

[10] = test system: Staphylococcus aureus S13E; assay type: cell-based
Protocol: as §1

[11] = test system: vancomycin-susceptible enterococci; assay: broth micro-dilution, mean geometric MIC; assay type: cell-based, Enterococcus faecium and Enterococcus faecalis; details: enterococci, 24-hour incubation
[12] = test system: Staphylococcus haemolyticus 415; assay: broth micro-dilution MIC; assay type: cell-based
Protocol: (§2) The formula I compounds have in vitro and in vivo activity against Gram-positive pathogenic bacteria. The MIC's were determined using a standard broth micro-dilution assay.

[13] = test system: Staphylococcus haemolyticus 105; assay: broth micro-dilution MIC; assay type: cell-based
Protocol: as §2

[14] = test system: Streptococcus pneumoniae P1; assay: broth micro-dilution MIC; assay type: cell-based
Protocol: as §2

[15] = test system: Entercoccus faecium 2041; assay: broth micro-dilution MIC; assay type: cell-based; details: Entercoccus faecium 2041
Protocol: as §2

[16] = test system: Staphylococcus epidermidis 270; assay: broth micro-dilution MIC; assay type: cell-based
Protocol: as §2

[17] = test system: Entercoccus faecium 180; assay: broth micro-dilution MIC; assay type: cell-based; details: Entercoccus faecium 180
Protocol: as §2

[18] = test system: Staphylococcus aureus 447; assay: broth micro-dilution MIC; assay type: cell-based
Protocol: as §1

[19] = test system: Staphylococcus aureus SA1199A; assay: broth micro-dilution MIC; assay type: cell-based
Protocol: as §1

[20] = test system: Staphylococcus aureus SA1199B; assay type: cell-based
Protocol: as §1

[21] = test system: Enterococcus gallinarum 245; assay: broth micro-dilution MIC; assay type: cell-based; details: Enterococcus gallinarum 245
Protocol: as §2

Row | SMILES | mean geometric MIC, Vancomycin Resistant Strains [1] [µg/mL] | MIC [2] [µg/mL] | MIC [3] [µg/mL] | MIC [4] [µg/mL] | MIC [5] [µg/mL] | MIC [6] [µg/mL] | MIC [7] [µg/mL] | MIC [8] [µg/mL] | MIC [9] [µg/mL] | MIC [10] [µg/mL] | mean geometric MIC, Vancomycin Sensitive Strains [11] [µg/mL] | MIC [12] [µg/mL] | MIC [13] [µg/mL] | MIC [14] [µg/mL] | MIC [15] [µg/mL] | MIC [16] [µg/mL] | MIC [17] [µg/mL] | MIC [18] [µg/mL] | MIC [19] [µg/mL] | MIC [21] [µg/mL] | further results
1 | CNC(CC(C)C)C(=O)NC1C(=O)NC(CC(N)=O)C(=O)NC2C(=O)NC3C(=O)NC(C(=O)NC(C(=O)O)c4cc(O)cc(O)c4-c4cc3ccc4O)C(OC3CC(C)(N)C(O)C(C)O3)c3ccc(c(Cl)c3)Oc3cc2cc(c3OC2OC(CO)C(O)C(O)C2OC2CC(C)(NCC=Cc3ccccc3)C(O)C(C)O2)Oc2ccc(cc2Cl)C1O (stereo not shown) [Compound 38] | 4.0 | 0.5 (≈ 0.293 µM) | 0.5 (≈ 0.293 µM) | ≤ 0.06 | 0.5 (≈ 0.293 µM) | 1 (≈ 0.585 µM) | ≤ 0.06 | 1 (≈ 0.585 µM) | 0.5 (≈ 0.293 µM) | ≤ 0.06 | 0.42 | 1 (≈ 0.585 µM) | 1 (≈ 0.585 µM) | ≤ 0.06 | ≤ 0.06 | 0.5 (≈ 0.293 µM) | ≤ 0.06 |  |  |  | 
2 | CNC(CC(C)C)C(=O)NC1C(=O)NC(CC(N)=O)C(=O)NC2C(=O)NC3C(=O)NC(C(=O)NC(C(=O)O)c4cc(O)cc(O)c4-c4cc3ccc4O)C(OC3CC(C)(N)C(O)C(C)O3)c3ccc(c(Cl)c3)Oc3cc2cc(c3OC2OC(CO)C(O)C(O)C2OC2CC(C)(NCCc3cccc(OCc4ccccc4)c3)C(O)C(C)O2)Oc2ccc(cc2Cl)C1O (stereo not shown) [Compound 69] | 13 |  | 1 (≈ 0.555 µM) | ≤ 0.06 | 0.5 (≈ 0.277 µM) | 1 (≈ 0.555 µM) |  | 0.5 (≈ 0.277 µM) | 1 (≈ 0.555 µM) |  | 0.44 | 8 (≈ 4.44 µM) | 4 (≈ 2.22 µM) |  |  | 2 (≈ 1.11 µM) | 4 (≈ 2.22 µM) | 1 (≈ 0.555 µM) | ≤ 0.06 | 8 (≈ 4.44 µM) | MIC [20]: 2 µg/mL (≈ 1.11 µM)
3 | CNC(CC(C)C)C(=O)NC1C(=O)NC(CC(N)=O)C(=O)NC2C(=O)NC3C(=O)NC(C(=O)NC(C(=O)O)c4cc(O)cc(O)c4-c4cc3ccc4O)C(OC3CC(C)(N)C(O)C(C)O3)c3ccc(c(Cl)c3)Oc3cc2cc(c3OC2OC(CO)C(O)C(O)C2OC2CC(C)(NCc3ccc(-c4ccc(OC)cc4)s3)C(O)C(C)O2)Oc2ccc(cc2Cl)C1O (stereo not shown) [Compound 71] | 11 | 2 (≈ 1.11 µM) | 2 (≈ 1.11 µM) |  | 2 (≈ 1.11 µM) | 1 (≈ 0.557 µM) |  | 1 (≈ 0.557 µM) | 4 (≈ 2.23 µM) | 1 (≈ 0.557 µM) | 0.57 | 8 (≈ 4.46 µM) | 16 (≈ 8.91 µM) |  | 1 (≈ 0.557 µM) | 2 (≈ 1.11 µM) | 4 (≈ 2.23 µM) | 4 (≈ 2.23 µM) |  | 8 (≈ 4.46 µM) | MIC [20]: 4 µg/mL (≈ 2.23 µM)
4 | CCN(CC)CCOc1ccc(CNC2(C)CC(OC3C(Oc4c5cc6cc4Oc4ccc(cc4Cl)C(OC4CC(C)(N)C(O)C(C)O4)C4NC(=O)C(NC(=O)C6NC(=O)C(CC(N)=O)NC(=O)C(NC(=O)C(CC(C)C)NC)C(O)c6ccc(c(Cl)c6)O5)c5ccc(O)c(c5)-c5c(O)cc(O)cc5C(C(=O)O)NC4=O)OC(CO)C(O)C3O)OC(C)C2O)cc1 (stereo not shown) [Compound 83] | 54 | 0.5 (≈ 0.278 µM) | 0.5 (≈ 0.278 µM) | 0.125 (≈ 0.0695 µM) |  | 2 (≈ 1.11 µM) | ≤ 0.06 | 2 (≈ 1.11 µM) | 1 (≈ 0.556 µM) | 0.125 (≈ 0.0695 µM) | 1.7 | 4 (≈ 2.22 µM) | 2 (≈ 1.11 µM) | ≤ 0.06 | 0.5 (≈ 0.278 µM) | 2 (≈ 1.11 µM) | 8 (≈ 4.45 µM) | 2 (≈ 1.11 µM) |  | 0.5 (≈ 0.278 µM) | MIC [20]: 1 µg/mL (≈ 0.556 µM)
5 | CNC(CC(C)C)C(=O)NC1C(=O)NC(CC(N)=O)C(=O)NC2C(=O)NC3C(=O)NC(C(=O)NC(C(=O)O)c4cc(O)cc(O)c4-c4cc3ccc4O)C(OC3CC(C)(N)C(O)C(C)O3)c3ccc(c(Cl)c3)Oc3cc2cc(c3OC2OC(CO)C(O)C(O)C2OC2CC(C)(NCc3ccc(N4CCN(C)CC4)cc3)C(O)C(C)O2)Oc2ccc(cc2Cl)C1O (stereo not shown) [Compound 146] |  | ≤ 0.06 | 1 (≈ 0.562 µM) | ≤ 0.06 | 1 (≈ 0.562 µM) | ≤ 0.06 | ≤ 0.06 | 0.5 (≈ 0.281 µM) | 0.5 (≈ 0.281 µM) | 0.5 (≈ 0.281 µM) | 1.5 | 4 (≈ 2.25 µM) | 2 (≈ 1.12 µM) | ≤ 0.06 | 0.5 (≈ 0.281 µM) | 2 (≈ 1.12 µM) | 8 (≈ 4.49 µM) | 2 (≈ 1.12 µM) | ≤ 0.06 | 0.5 (≈ 0.281 µM) | MIC [20]: ≤ 0.06 µg/mL
6 | CNC(CC(C)C)C(=O)NC1C(=O)NC(CC(N)=O)C(=O)NC2C(=O)NC3C(=O)NC(C(=O)NC(C(=O)O)c4cc(O)cc(O)c4-c4cc3ccc4O)C(OC3CC(C)(N)C(O)C(C)O3)c3ccc(c(Cl)c3)Oc3cc2cc(c3OC2OC(CO)C(O)C(O)C2OC2CC(C)(NCC3=CCC4CC3C4(C)C)C(O)C(C)O2)Oc2ccc(cc2Cl)C1O (stereo not shown) [Compound 170] | 8.0 | 1 (≈ 0.579 µM) | 0.5 (≈ 0.29 µM) | ≤ 0.06 | 0.5 (≈ 0.29 µM) | 1 (≈ 0.579 µM) | ≤ 0.06 | 0.5 (≈ 0.29 µM) | 2 (≈ 1.16 µM) |  | 0.22 | 4 (≈ 2.32 µM) | 4 (≈ 2.32 µM) | ≤ 0.06 | ≤ 0.06 | 1 (≈ 0.579 µM) | 2 (≈ 1.16 µM) | 0.5 (≈ 0.29 µM) | ≤ 0.06 | 4 (≈ 2.32 µM) | 
7 | CNC(CC(C)C)C(=O)NC1C(=O)NC(CC(N)=O)C(=O)NC2C(=O)NC3C(=O)NC(C(=O)NC(C(=O)O)c4cc(O)cc(O)c4-c4cc3ccc4O)C(OC3CC(C)(N)C(O)C(C)O3)c3ccc(c(Cl)c3)Oc3cc2cc(c3OC2OC(CO)C(O)C(O)C2OC2CC(C)(NCc3ccc(NC(=O)c4cccc(F)c4)cc3)C(O)C(C)O2)Oc2ccc(cc2Cl)C1O (stereo not shown) [Compound 194] | 2.4 | 0.5 (≈ 0.275 µM) | ≤ 0.06 | ≤ 0.06 |  | 0.5 (≈ 0.275 µM) | ≤ 0.06 | ≤ 0.06 | ≤ 0.06 | ≤ 0.06 | 0.083 | 2 (≈ 1.1 µM) | 1 (≈ 0.55 µM) | ≤ 0.06 | ≤ 0.06 | 0.5 (≈ 0.275 µM) | ≤ 0.06 | 0.5 (≈ 0.275 µM) | ≤ 0.06 | 2 (≈ 1.1 µM) | 

Reference: US5840684A, “Glycopeptide antibiotic derivatives” (Eli Lilly and Company, priority 1995, dated 1998)
